Patent publication US8455479B2, “Heterocyclic compounds” (Panacea Biotec Limited, priority 2008, dated 2013)

Columns and labels:
C57BL/6J mice = test: Oral glucose tolerance test (OGTT) in C57BL/6J mice; assay type: in vivo; conditions: for ED50 (mg/kg p.o.): OGTT in C57BL/6J mice; for % Reduction in glucose excursion: OGTT in C57BL/6J mice at 3 mg/kg body weight, glucose 2 g/kg p.o., glucose AUC
Experimental: Oral Glucose Tolerance Test (OGTT) in C57BL/6J Mice
The oral glucose tolerance test (OGTT) measures the body's ability to use glucose that is the body's main source of energy. OGTT serves as a primary in-vivo screen to select efficacious test compounds for their antidiabetic activity. Compounds were formulated in 0.25% CMC with a drop of tween 80 (optional). C57BL/6J male mice (8-9 weeks) were fasted overnight and randomized into different groups (n=6) on body weigh basis. At T−15 min blood was collected from each group for glucose estimation. At T0 compounds or vehicle were administered with simultaneous administration of glucose (2 g/kg p.o.) to each group. RO water was administered to no glucose control group. Blood samples were collected from retro-orbital plexus at 15, 30, 60 and 120 min post dosing for glucose estimation. The AUC for glucose was calculated to get the reduction in glucose excursion.

DPP-IV = DPP-IV (UniProt P27487); test: In-vitro DPP-IV assay (cleavage of pNA from Gly-Pro-pNA); assay type: biochemical, porcine kidney or human recombinant; conditions: for IC50: DPP-IV; for % Inhibition: DPP-IV inhibition at 100 nM
Experimental: Protocol for In-Vitro DPP-IV Assay
DPP-IV activity was determined by the rate of cleavage of p-nitro aniline (pNA) from synthetic substrate Glycine-Proline-pNA. The assay was conducted by adding 1 μg of porcine kidney or human recombinant DPP-IV enzyme (Sigma Aldrich, USA) in 100 μL of the assay buffer (100 mM Tris, pH 7.4, 140 mM NaCl, 10 mM KCl, 1% BSA) to 96 well Cellstar flat bottom microtitre plates (Greiner Bio-one, Germany). The reaction was initiated by adding 80 μl of 500 μM substrate Gly-Pro-pNA. The incubation was carried out in the kinetic mode at 30° C. for 30 min. Absorbance was measured using Synergy HT Biotek Multiplate reader at 410 nm. Test compounds and solvent controls were added as 10 μL additions. A standard curve of free p-nitro, aniline (pNA) was generated using 0-2000 μM pNA in the assay buffer. In addition DPP-IV activity was also determined by using Fluorogenic substrate (Gly-Pro-AMC) using human recombinant DPP-IV enzyme (Sigma Aldrich USA).
Test compounds dissolved in DMSO at 9-10 different concentrations were tested in triplicates along with the solvent control and blank samples. % age inhibition was calculated at each concentration with respect to the solvent control (no test compound added). IC50 values were calculated from 3 experiments using the Graph Pad Prism or Sigma Stat software.

## N[C@@H](CC(=O)N1CC(=O)Nc2cc(F)ccc2C1)Cc1cc(F)c(F)cc1F [Compound 3]
C57BL/6J mice
  ED50 (mg/kg p.o.): 0.7 mg/kg p.o.
  % Reduction in glucose excursion: 37%
DPP-IV
  IC50: 1 to 100 nM
  % Inhibition: Y (Y: 50-100% DPP-IV inhibition at 100 nM)

## N[C@@H](CC(=O)N1CC(=O)Nc2ccccc2C1)Cc1cc(F)c(F)cc1F [Compound 2]
C57BL/6J mice
  ED50 (mg/kg p.o.): 0.4 mg/kg p.o.
  % Reduction in glucose excursion: 51%
DPP-IV
  IC50: 1 to 100 nM
  % Inhibition: Y (Y: 50-100% DPP-IV inhibition at 100 nM)

## N[C@@H](CC(=O)N1Cc2ccccc2-n2ccnc2C1)Cc1cc(F)c(F)cc1F [Compound 95]
DPP-IV
  IC50: 1 to 100 nM
  % Inhibition: Y (Y: 50-100% DPP-IV inhibition at 100 nM)

## N[C@@H](CC(=O)N1CC(=O)N(CC(=O)NC2CC2)c2cc(F)ccc2C1)Cc1cc(F)c(F)cc1F [Compound 38]
DPP-IV
  IC50: 1 to 100 nM
  % Inhibition: Y (Y: 50-100% DPP-IV inhibition at 100 nM)

## CN(C(=O)CN1C(=O)CN(C(=O)C[C@H](N)Cc2cc(F)c(F)cc2F)Cc2ccccc21)C1CC1 [Compound 39]
DPP-IV
  % Inhibition: Y (Y: 50-100% DPP-IV inhibition at 100 nM)
